test system: Botrytis cinerea; assay: Activity against Botrytis cinerea on bell pepper leaves (sprayed green bell pepper fruit disks, protective); assay type: in vivo; settings: single active ingredient, 4 ppm in the spray liquor, inoculated 2 hours after spray coating dried, 18° C., 4 days, visual evaluation
Experimental: The active ingredients, separately or together, are formulated as a 10% emulsion in a mixture of 63% by weight of cyclohexanone and 27% by eight of emulsifier, and diluted with water to the desired concentration.
Evaluation is carried out by determining the infected leaf areas in percent. These percentages are converted into efficacies. The efficacy (W) is calculated as follows using Abbot's formula: […]
α corresponds to the fungal infection of the treated plants in % and β corresponds to the fungal infection of the untreated (control) plants in % An efficacy of 0 means that the infection level of the treated plants corresponds to that of the untreated control plants; an efficacy of 100 means that the treated plants were not infected.
The expected efficacies of the mixtures of the active ingredients were determined using Colby's formula [R. S. Colby, Weeds 15, 20-22 (1967)] and compared with the observed efficacies.
Colby formula: E=x+Y−x·y/100
E expected efficacy, expressed in % of the untreated control, when using the mixture of the active ingredients A and B at the concentrations a and b x efficacy, expressed in % of the untreated control, when using active ingredient A at the concentration a y efficacy, expressed in % of the untreated control, when using active ingredient B at the concentration b Disks of green bell peppers were sprayed to runoff point with an aqueous preparation of active ingredient which had been prepared from a stock solution comprising 10% of active ingredient, 63% of cyclohexanone and 27% of emulsifier. 2 hours after the spray coating had dried on, the fruit disks were inoculated with a spore suspension of Botrytis cinerea containing 1.7×10^6 spores per ml of a 2% strength Biomalz solution. The inoculated fruit disks were subsequently incubated in humid chambers at 18° C. for 4 days. The Botyrtis infection on the diseased fruit disks was then evaluated visually.

Structure (SMILES) | Efficacy in % of the untreated control [%]
O=C(Nc1ccccc1-c1ccc(F)cc1)c1cccnc1Cl [Compound I.1] | 0
O=C(Nc1ccccc1-c1ccc(Cl)cc1)c1cccnc1Cl [Compound I.2] | 40
CCCCNC(=O)n1c(NC(=O)OC)nc2ccccc21 [Compound II.a, methyl 1-(butylcarbamoyl)benzimidazol-2-ylcarbamate] | 10
COC(=O)NC(=S)Nc1ccccc1NC(=S)NC(=O)OC [Compound II.f, dimethyl 4,4′-(o-phenylene)-bis(3-thioallophanate)] | 10
